From US8063077B2, “Factor Xa inhibitors” (Millennium Pharmaceuticals, Inc., priority 2006, dated 2011) come the findings set out here.

Series [1] has as its target T1, human plasma protein factor Xa (Homo sapiens, UniProt P00742).
T1 construct: The human plasma protein factor Xa was purchased from Haematologic Technologies; purchased Haematologic Technologies (Essex Junction, Vt.); host or cells: human plasma
Nature of the series: Factor Xa IC50 determination, cleavage of paranitroanilide substrate S-2765. The format is biochemical. To be noted: factor Xa 1 nM, S2765 100 μM, Tris buffered saline pH 7.4, 5% DMSO. From the text:
This example illustrates methods for evaluating the compounds of the invention, along with results obtained for such assays. The in vitro and in vivo human Factor Xa activities of the inventive compounds can be determined by various procedures known in the art, such as a test for their ability to inhibit the activity of human plasma Factor Xa. […] The IC50 value is the concentration (in nM) of the compound required to provide 50% inhibition of human Factor Xa proteolytic activity.
An in vitro assay for detecting and measuring inhibition activity against Factor Xa is as follows:
The substrate S-2765 (Z-D-Arg-Gly-Arg-pNA•HCl) was obtained from Diapharma (West Chester, Ohio).
The human plasma protein factor Xa was purchased from Haematologic Technologies (Essex Junction, Vt.).
All assays, which are performed in 96-well microtiter plates, measure proteolytic activity of the enzyme (factor Xa) by following cleavage of a paranitroanilide peptide substrate. The assay buffer used for proteolytic assays was Tris buffered saline (20 mM Tris, 150 mM NaCl, 5 mM CaCl2, 0.1% Bovine serum albumin (BSA), 5% Dimethly Sulfoxide (DMSO) pH 7.4). In a 96-well microtiter plate, inhibitor was serially diluted to give a range of final concentrations from 0.01 nM to 10 μM. Duplicate sets of wells were assayed and control wells without inhibitor were included. Enzyme was added to each well, (factor Xa concentration=1 nM), the plate was shaken for 5 seconds and then incubated for 5 minutes at room temperature. S2765 was added (100 μM final) and the plate was shaken for 5 seconds (final volume in each well was 200 μl). The degree of substrate hydrolysis was measured at 405 nm on a Thermomax plate reader (Molecular Devices, Sunnyvale, Calif.) for 2 minutes. The initial velocities of substrate cleavage (mOD/min), for each range of inhibitor concentrations, were fitted to a four parameter equation using Softmax data analysis software. The parameter C, derived from the resulting curve-fit, corresponded to the concentration for half maximal inhibition (IC50).

Series [2] can be described thus: Pharmacokinetics of Compound 10 in rat (IV and PO), plasma and urine by LC/MS/MS. The format is in vivo, male Sprague-Dawley rats. More on the design: AUC/D (dose-normalized AUC(0-inf)): unit not given here. To be noted: mean ± SD. On the procedure:
Compound 10 was used in the rat investigation. An intravenous (IV) and oral (PO) dose of Compound 10 (1.0 and 10 mg/kg, respectively) was prepared. The IV dose was solubilized in 50% PEG300 to yield a final concentration of 1.0 mg/mL with a final pH of 5.13. The PO dose was suspended in 0.5% methylcellulose at a concentration of 2.0 mg/mL with a final pH of 2.70.
A total of six male Sprague-Dawley rats (n=3/dosing group) from Charles River Laboratories (Hollister, Calif.), three male beagle dogs from Marshall BioResources (North Rose, N.Y.) and three male rhesus monkeys were utilized. All surgical procedures in rat (femoral and jugular vein catheterizations) were performed 8 days prior to utilization in the study and rats were acclimated in-house 5 days prior to utilization. Dogs were acclimated in-house at least seven days prior to utilization and were returned to the colony at the completion of the study. Monkey studies were conducted by an off-site contract laboratory.
All animals were fasted from the afternoon prior to study initiation to two hours post-dose (approximately 18 hours). Water was provided ad libitum. All animal rooms were on a 12 hour light-dark cycles (6 A.M. to 6 P.M.). On the morning of experimentation, animals were weighed. Rat femoral and jugular (IV only) vein blood lines were exteriorized and attached to access ports. […]
(§1) All animals were dosed based on individual weights with a PO gavage volume of 5.0 mL/kg and an IV bolus dose volume of 1.0 mL/kg. […] At collection times, urine volume and water consumption was recorded. […]
(§2) Plasma and urine samples were analyzed for Compound 10 concentration using a liquid chromatography tandem mass spectrometry (LC/MS/MS). […] The peak areas of the m/z 411→250 product ion (Compound 10) were measured against those of the m/z 470→342 product ion (N-(2-(5-chloropyridin-2-ylcarbaomoyl)-4-methoxyphenyl)-4-(N,N-dimethylcarbamimidoyl)-2-fluorobenzamide) in positive ion mode. […]
(§3) Sample Compound 10 concentrations below the lower limit of quantitation (LLQ) were reported as <0.500 ng/mL. […]

Series [3] is described as follows: Pharmacokinetics of Compound 10 in dog (IV and PO), plasma by LC/MS/MS. The format is in vivo, male beagle dogs. More on the design: AUC/D (dose-normalized AUC(0-inf)): unit not given here. The note with it: mean ± SD. Here is the method:
(§4) For the dog and monkey study, Compound 10 was also used. An IV and PO dose of Compound 10 (1.0 and 5.0 mg/kg, respectively) was prepared. The IV dose was formulated similarly to that used in the rat study (50% PEG300 in water). The PO dose was suspended in 0.5% methylcellulose at a concentration of 1.0 mg/mL with a final pH of approximately 3.50.
(§5) A total of six male Sprague-Dawley rats (n=3/dosing group) from Charles River Laboratories (Hollister, Calif.), three male beagle dogs from Marshall BioResources (North Rose, N.Y.) and three male rhesus monkeys were utilized. […]
as §1, §2, §3

Series [4] can be described thus: Pharmacokinetics of Compound 10 in monkey (IV and PO), plasma by LC/MS/MS. The format is in vivo, male rhesus monkeys. Also noted: AUC/D (dose-normalized AUC(0-inf)): unit not given here. The note with it: mean ± SD. On the procedure: as §4, §5, §1, §2, §3

T1 sequence (P00742 235-488 limits assumed): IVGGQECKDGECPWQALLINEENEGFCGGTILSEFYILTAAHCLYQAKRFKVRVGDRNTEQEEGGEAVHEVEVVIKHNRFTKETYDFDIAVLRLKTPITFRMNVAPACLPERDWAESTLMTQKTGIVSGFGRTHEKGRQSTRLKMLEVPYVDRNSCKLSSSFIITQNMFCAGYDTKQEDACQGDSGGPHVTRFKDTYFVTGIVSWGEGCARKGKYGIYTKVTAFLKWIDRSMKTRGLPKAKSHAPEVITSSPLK
T1 sequence (P00742 41-179 partner limits assumed): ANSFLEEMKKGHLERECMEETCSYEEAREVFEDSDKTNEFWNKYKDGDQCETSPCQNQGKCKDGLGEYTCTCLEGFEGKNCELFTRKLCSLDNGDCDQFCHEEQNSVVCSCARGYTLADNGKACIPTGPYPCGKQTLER

On to `O=C(NCc1cn(-c2ccc(-n3ccccc3=O)cc2)cn1)c1ccc(Cl)s1` [Compound 10, 5-Chloro-N-((1-(4-(2-oxopyridin-1(2H)-yl)phenyl)-1H-imidazol-4-yl)methyl)thiophene-2-carboxamide], for which, in series [1], the IC50 – broadly, the point on the concentration scale where inhibition reaches its midpoint – was not above 100 nM. For the same molecule, the “Dose excreted unchanged in urine” value in series [2] (intravenous, 1 mg/kg, urine to 24 hours post-dose) came out at 0.248 ± 0.019%. For the same molecule, the bioavailability in series [2] (male, Sprague-Dawley, plasma, oral 10 mg/kg vs intravenous 1 mg/kg, read-out: F (absolute bioavailability)) came to 127 ± 23.1%; in series [3] (male, beagle, plasma, oral 5 mg/kg vs intravenous 1 mg/kg, read-out: F (absolute bioavailability)), 68.5 ± 15.5%; in series [4] (male, rhesus, rhesus monkey, plasma, oral 5 mg/kg vs intravenous 1 mg/kg, read-out: F (absolute bioavailability)), 71.6 ± 18.1%. The “AUC/D (dose-normalized AUC(0-inf))” value in series [2] (oral, 10 mg/kg, n=3) is on record as 6859 ± 1249; in series [3] (oral, 5 mg/kg, n=3) it was 1095 ± 295; in series [4] (oral, 5 mg/kg, n=3), 8430 ± 3449.
